As usually defined, the melting point is the temperature, or range, at which the solid turns liquid.

The values that follow come from patent publication US9902737B2, “Sweet flavor modifier” (SENOMYX, INC., priority 2010, dated 2018).

Values joined by “and” are separate entries in the source; they are usually repeats but may differ in a detail not shown here. Equal values may be shown once.

In one data set the target is T1, hT1R2/R3 (Homo sapiens, UniProt Q7RTX0+Q8TE23).
T1 construct: expressed in transfected cells; host or cells: HEK293 cells expressing Ga15 (hT1R2/R3-HEK293 Ga15)
T1 sequence (Q8TE23 20-839): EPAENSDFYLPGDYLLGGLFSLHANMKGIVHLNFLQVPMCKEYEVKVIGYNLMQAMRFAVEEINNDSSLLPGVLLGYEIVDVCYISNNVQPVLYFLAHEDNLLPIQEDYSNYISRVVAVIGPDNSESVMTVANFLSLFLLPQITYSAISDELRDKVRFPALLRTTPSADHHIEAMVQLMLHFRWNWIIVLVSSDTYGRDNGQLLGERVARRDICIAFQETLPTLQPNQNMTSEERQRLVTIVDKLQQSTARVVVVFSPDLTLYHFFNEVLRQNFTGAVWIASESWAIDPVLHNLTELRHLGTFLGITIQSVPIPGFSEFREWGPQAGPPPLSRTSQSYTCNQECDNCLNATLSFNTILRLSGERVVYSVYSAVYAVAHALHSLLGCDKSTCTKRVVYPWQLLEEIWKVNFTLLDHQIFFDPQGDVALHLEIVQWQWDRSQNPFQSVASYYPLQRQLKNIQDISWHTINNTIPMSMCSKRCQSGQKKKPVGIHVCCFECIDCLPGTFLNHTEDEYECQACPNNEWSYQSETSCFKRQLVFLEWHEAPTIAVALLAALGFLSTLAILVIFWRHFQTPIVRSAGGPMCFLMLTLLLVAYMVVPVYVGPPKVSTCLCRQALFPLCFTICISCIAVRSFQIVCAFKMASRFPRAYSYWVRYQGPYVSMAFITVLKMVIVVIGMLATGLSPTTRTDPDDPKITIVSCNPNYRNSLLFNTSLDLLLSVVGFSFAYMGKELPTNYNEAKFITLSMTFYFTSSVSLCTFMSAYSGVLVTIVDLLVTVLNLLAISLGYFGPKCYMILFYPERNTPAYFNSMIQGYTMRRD
T1 sequence (Q7RTX0 21-852): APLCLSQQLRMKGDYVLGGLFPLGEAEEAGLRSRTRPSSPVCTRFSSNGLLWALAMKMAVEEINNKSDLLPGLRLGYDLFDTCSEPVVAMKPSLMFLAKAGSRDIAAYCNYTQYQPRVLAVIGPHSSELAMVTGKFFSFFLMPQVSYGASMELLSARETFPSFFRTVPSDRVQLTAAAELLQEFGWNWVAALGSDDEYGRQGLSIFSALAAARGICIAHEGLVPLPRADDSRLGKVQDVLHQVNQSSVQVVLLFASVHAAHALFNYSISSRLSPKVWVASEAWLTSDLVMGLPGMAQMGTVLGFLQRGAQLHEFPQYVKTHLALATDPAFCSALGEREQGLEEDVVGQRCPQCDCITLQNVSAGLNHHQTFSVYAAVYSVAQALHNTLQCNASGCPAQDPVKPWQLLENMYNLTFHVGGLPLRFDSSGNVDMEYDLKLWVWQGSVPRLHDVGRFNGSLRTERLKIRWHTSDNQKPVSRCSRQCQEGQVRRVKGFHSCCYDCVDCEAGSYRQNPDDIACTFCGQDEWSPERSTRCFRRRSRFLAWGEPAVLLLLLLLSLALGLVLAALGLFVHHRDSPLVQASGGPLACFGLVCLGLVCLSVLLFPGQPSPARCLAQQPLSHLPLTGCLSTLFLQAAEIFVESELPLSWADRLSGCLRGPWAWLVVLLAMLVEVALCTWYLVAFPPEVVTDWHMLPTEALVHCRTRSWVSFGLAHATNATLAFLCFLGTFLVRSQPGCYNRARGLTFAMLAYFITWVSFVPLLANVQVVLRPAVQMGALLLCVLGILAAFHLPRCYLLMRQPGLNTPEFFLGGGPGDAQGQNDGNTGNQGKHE
The data set is described as follows: Screening for sweet enhancers: sucrose EC50 shift, FLIPR calcium assay. It is filed as cell-based. Particulars: sucrose EC50 without enhancer / with enhancer; test compound 50 μM; hT1R2/R3-HEK293 Ga15 cells; Tables A and B. The protocol:
hT1R2/R3-HEK293 Ga15 cells were seeded in 384-well-clear bottom plates (Fisher) at a density of ˜32,000 cells/well and grown overnight. On the day of the experiment, hT1R2/R3-HEK293 Ga15 were loaded with the calcium indicator Fluo3AM ([…]) (Invitrogen, Carlsbad, Calif.) in D-PBS (Invitrogen, Carlsbad, Calif.) using a Multidrop. Cells were incubated for 1 hour at room temperature and excess dye was washed out with D-PBS using an EMBLA cell washer (Molecular Devices, Sunnyvale, Calif.), leaving a residual volume of […]. […] After 30 minutes of rest time at room temperature, Fluo3AM-loaded cell plates, and the sweetener/compound plate mixture were loaded into a Fluorometric Imaging Plate Reader (FLIPR) (Molecular Devices, Sunnyvale, Calif.). Imaging was performed using a 480 nm excitation and a 535 emission and was initiated with the acquisition of the baseline fluorescence for a period of 7 seconds. […] Raw fluorescence counts were then normalized in each well (using custom made data import software) by calculating delta F/f values (maximum fluorescent count obtained after stimulation—minimal fluorescent count obtained before stimulation/minimal fluorescent count obtained before stimulation). EC50s were determined using a non-linear regression algorithm (GraphPad PRISM, San Diego, Calif.), where the Hill slope, bottom asymptotes and top asymptotes were allow to vary. […]

In data set [1] the test system is human panelists. Description: Sweet flavor enhancement, human panelists, paired comparison test. It is filed as in vivo. How it is done:
Test samples containing experimental compounds are presented in pairs to the panelist and they are asked to determine which of the sample is sweeter. A group of 10-16 or more panelists participated in each test. Subjects refrained from eating or drinking (except water) for at least 1 hour prior to the test. Subjects rinsed with water several times to clean the mouth.
All samples are prepared with ethanol to ensure dispersion of the compound in solution. This includes samples without compound; all solutions are balanced for 0.1% ethanol.
Samples are also prepared with low sodium buffer (pH 7.1) in place of water. Buffer contains 0.952 g of KCl, 5.444 g of Na2HPO4, and 0.952 g of KH2PO4 in 40 L of DIUF water. Sample volumes are usually 20 ml.
In one paired comparison test, the panelist is presented with two different samples and asked to identify the sample which is sweeter. The samples within a paired comparison test are presented in a randomized, counterbalanced order. Panelists have up to a 1 minute delay between taste tests to clear the mouth of any tastes.
Binomial probability tables are used to determine the probability of the correct number of responses occurring for each test at alpha=0.05

In data set [2] the test system is human panelists. Description: Sweet flavor enhancement, human panelists, scaling test. Format: in vivo. Particulars: 0-15 line scale. On the set-up: key: 0 = no sweetness, 15 = sweetness equal to 15% sucrose. The source says:
Test samples containing experimental compounds were compared to a dose-response curve for perceived sweetness intensity of sweeteners (sucralose, sucrose, fructose and other sweeteners) concentrations to determine equivalent sweetness intensity.
A group of eight or more panelists tasted solutions including sweeteners at various concentrations, as well as the experimental compound both with and without added sweetener. Panelists then rated sweetness intensity of all samples on a structured horizontal line scale, anchored from 0 to 15, where 0 equals no sweetness and 15 equals equivalent sweetness to a 15% sucrose sample. Scores for sweetness intensity were averaged across panelists. Then using the average scores and/or equation of the line for the sweetener dose-response curve, equivalent sweetness concentrations were determined for the samples containing experimental compounds.
Subjects had been previously familiarized with the key attribute taste and were trained to use the 0 to 15 point line scale. Subjects refrained from eating or drinking (except water) for at least 1 hour prior to the test. Subjects ate a cracker and rinsed with water several times to clean the mouth.
Sweetener solutions are provided at a wide range of concentrations such as 100 ppm, 200 ppm, 300 ppm, 400 ppm, and 500 ppm for sucralose, or between 0% and 12% for sucrose or fructose, in order to create a dose-response curve. Samples containing experimental compound were prepared both alone and in a 100 ppm sucralose solution or a 6% sucrose or fructose solution. All samples were made up in low sodium buffer pH 7.1. In order to aid dispersion, solutions can be made up in 0.1% ethanol.
The solutions were dispensed in 20 ml volumes into 1 oz. sample cups and served to the subjects at room temperature. All samples were presented in randomized counterbalanced order to reduce response bias. Further, two sessions of testing may be used to check panel precision.
Subjects tasted each sample individually and rate sweetness intensity on the line scale prior to tasting the next sample. All samples were expectorated. Subjects may retaste the samples but can only use the volume of sample given. Subjects must rinse with water between samples. Eating an unsalted cracker between samples may be required depending on the samples tasted.
The scores for each sample were averaged across subjects and standard error was calculated. The dose-response curve was plotted graphically, and this may be used to ensure the panel is rating accurately; i.e., increasing the concentration of sucralose should correspond to increased average scores for sweetness. A 2-way ANOVA (factors being samples and panelists) and multiple comparison tests (such as Tukey's Honestly Significant Difference test) can be used to determine differences among samples and/or panelists. A 3-way ANOVA, with sessions as the third factor, can be used to determine if there is any difference in the ratings between sessions.

Take `CCCNC(=O)C(C)(C)COc1cccc2nc(CC)c(C(=O)O)c(N)c12` [Compound Q, 4-amino-5-(2,2-dimethyl-3-oxo-3-(propylamino)propoxy)-2-ethyl-quinoline-3-carboxylic acid]: the “EC50 Ratio (50 μM)” value at hT1R2/R3 was found to be 3.4.

With `CCC(CC)COc1cccc2nc(C)c(C(=O)O)c(N)c12` [Example 22, 4-amino-5-(2-ethylbutoxy)-2-methylquinoline-3-carboxylic acid], the melting point lay within 145 to 151 °C.

As for `Cc1nc2cccc(OCC(C)(C)NC(=O)c3ccncc3)c2c(N)c1C(=O)O` [Example 24, 4-amino-5-(2-(isonicotinamido)-2-methylpropoxy)-2-methylquinoline-3-carboxylic acid], the melting point was in the range of 195 to 198 °C.

Compound `Cc1nc2cccc(OCC(C)(C)NC(=O)c3cccc(O)c3)c2c(N)c1C(=O)O` [Example 25, 4-amino-5-(2-(3-hydroxybenzamido)-2-methylpropoxy)-2-methylquinoline-3-carboxylic acid] displayed a melting point of 195 to 198 °C.

Regarding `Cc1nc2cccc(OC3CCCCC3)c2c(N)c1C(=O)O` [Example 36, 4-amino-5-(cyclohexyloxy)-2-methylquinoline-3-carboxylic acid], the melting point was in the range of 220 to 221.5 °C.

On to `Cc1nc2cccc(OCC(C)C)c2c(N)c1C(=O)O` [Example 41, 4-amino-5-isobutoxy-2-methylquinoline-3-carboxylic acid], for which the melting point stood at 203.7 °C.

Turning to `OC[C@H]1O[C@@](CO)(O[C@H]2O[C@H](CO)[C@@H](O)[C@H](O)[C@H]2O)[C@@H](O)[C@@H]1O` [Sucrose, sucrose], the “Sample selected as sweeter by panelists, Total” value is given as 44 in the data set on human panelists [1] (pair: 1% sucrose vs LSB + 25 uM Compound A, total 45); 36 in the data set on human panelists [1] (pair: 1% sucrose vs LSB + 25 uM Compound I3, total 42); 18 in the data set with human panelists [1] (pair: 1% sucrose vs LSB + 33 uM Compound C1, total 22); 44 in the data set with human panelists [1] (pair: 1% sucrose vs LSB + 36.5 uM Compound B4, total 45); 47 with human panelists [1] (pair: 1% sucrose vs LSB + 45 uM Compound J, total 48); 28 in the data set with human panelists [1] (pair: 10% sucrose vs 6% sucrose + 25 uM Compound A, total 48). For the same compound, the “Sample selected as sweeter by panelists, Total” value in the data set on human panelists [1] (pair: 10% sucrose vs 6% sucrose + 36.5 uM Compound B4, total 26) worked out at 10; in the data set on human panelists [1] (pair: 10% sucrose vs 6% sucrose + 45 uM Compound J, total 42), 17; in the data set with human panelists [1] (pair: 12% sucrose vs 6% sucrose + 25 uM Compound I3, total 42), 18; in the data set with human panelists [1] (pair: 12% sucrose vs 6% sucrose + 33 uM Compound C1, total 30) it was 17. In addition, the Average sweetness in the data set with human panelists [2] (6% sucrose alone (reference)) is 6.6 and 6.5 and 6.3 and 6.2 and 6.1 and 6.4; in the data set with human panelists [2] (8% sucrose alone (reference)) it was 8.2 and 8.1 and 7.8 and 7.9 and 8.4; in the data set on human panelists [2] (9% sucrose alone (reference)), 9.2 and 8.4 and 8.6 and 8.5; in the data set with human panelists [2] (10% sucrose alone (reference)), 9.7 and 9.5 and 9.2 and 9.0 and 9.6 and 10.3; with human panelists [2] (12% sucrose alone (reference)) it was 10.9.

On to `OC[C@H]1O[C@H](O[C@]2(CCl)O[C@H](CCl)[C@@H](O)[C@@H]2O)[C@H](O)[C@@H](O)[C@H]1Cl` [sucralose], for which the Average sweetness in the data set on human panelists [2] (50 ppm sucralose alone (reference)) is 3.9; in the data set on human panelists [2] (100 ppm sucralose alone (reference)) it was 5.9 and 5.5; with human panelists [2] (200 ppm sucralose alone (reference)), 8.7 and 9.1; in the data set with human panelists [2] (300 ppm sucralose alone (reference)) it was 10.2.
